Test [1] concerns the target CDK2/Cyclin A2 (Homo sapiens) (UniProt P24941+P20248). Kind of test: Inhibition of recombinant human CDK2/cyclin A at 10 uM using Ulight-CFFKNIVTPRTPPPSQGK-amide as substrate after 15 mins by fluorescence assay relative to control. It is filed as protein-complex assay.
Test [2] deals with CDK9/cyclin T1 (Homo sapiens) (UniProt O60563+P50750). Kind of test: Inhibition of recombinant human CDK9/cyclin T1 at 10 uM using Ulight-CFFKNIVTPRTPPPSQGK-amide as substrate after 90 mins by fluorescence assay relative to control. It is filed as protein-complex assay.
Another test addresses CDK9/cyclin T1 (Homo sapiens, UniProt P50750). Kind of test: Inhibition of recombinant human CDK9/cyclin T1 using Ulight-CFFKNIVTPRTPPPSQGK-amide as substrate after 90 mins by fluorescence assay relative to control. It counts as protein-complex assay.
In a further test the target is CDK2/Cyclin A2 (Homo sapiens, UniProt P24941). The test can be described thus: Inhibition of recombinant human CDK2/cyclin A using Ulight-CFFKNIVTPRTPPPSQGK-amide as substrate after 15 mins by fluorescence assay relative to control. It counts as protein-complex assay.
A further test is filed under the species Homo sapiens. Kind of test: Selectivity ratio of IC50 for recombinant human CDK9/cyclin T1 to IC50 for recombinant human CDK2/cyclin A.

SMILES strings stand for the structures.

Chain of CDK9/cyclin T1 (O60563 whole entry): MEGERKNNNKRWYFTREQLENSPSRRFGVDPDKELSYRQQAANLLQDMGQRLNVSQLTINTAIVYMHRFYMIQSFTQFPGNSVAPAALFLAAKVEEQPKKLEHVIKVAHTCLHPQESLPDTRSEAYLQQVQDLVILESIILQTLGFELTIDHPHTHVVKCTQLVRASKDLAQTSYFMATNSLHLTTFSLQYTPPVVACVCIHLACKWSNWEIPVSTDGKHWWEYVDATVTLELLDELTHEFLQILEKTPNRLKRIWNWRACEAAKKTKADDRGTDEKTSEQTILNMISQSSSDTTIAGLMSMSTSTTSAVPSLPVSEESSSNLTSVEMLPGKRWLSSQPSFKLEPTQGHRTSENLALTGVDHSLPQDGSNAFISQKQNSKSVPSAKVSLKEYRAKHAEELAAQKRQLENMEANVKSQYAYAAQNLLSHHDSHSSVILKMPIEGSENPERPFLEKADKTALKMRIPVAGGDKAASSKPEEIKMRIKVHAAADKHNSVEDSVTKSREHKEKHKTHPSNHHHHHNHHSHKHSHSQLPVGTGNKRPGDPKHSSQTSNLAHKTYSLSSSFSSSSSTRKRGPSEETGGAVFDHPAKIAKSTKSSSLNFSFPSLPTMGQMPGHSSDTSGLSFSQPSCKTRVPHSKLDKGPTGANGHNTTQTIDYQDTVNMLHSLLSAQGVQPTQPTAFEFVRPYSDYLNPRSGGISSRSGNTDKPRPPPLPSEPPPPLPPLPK
Chain of CDK9/cyclin T1 (P50750 whole entry): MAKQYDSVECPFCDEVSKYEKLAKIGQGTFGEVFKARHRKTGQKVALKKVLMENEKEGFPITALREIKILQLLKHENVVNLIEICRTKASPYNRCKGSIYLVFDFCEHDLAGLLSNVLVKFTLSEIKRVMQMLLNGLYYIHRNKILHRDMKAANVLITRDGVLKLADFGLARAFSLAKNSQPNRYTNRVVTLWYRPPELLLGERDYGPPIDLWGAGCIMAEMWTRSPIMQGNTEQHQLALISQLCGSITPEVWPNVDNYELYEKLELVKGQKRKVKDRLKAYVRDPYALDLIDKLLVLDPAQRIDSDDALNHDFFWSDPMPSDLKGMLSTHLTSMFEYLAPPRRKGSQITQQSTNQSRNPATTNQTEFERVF

In the case of `O=C(Nc1n[nH]c2ncc(-c3cccc(O)c3)cc12)C1CCCCC1`, the inhibition in test [1] was determined as 63%; in test [2], 62%.

Take `O=C(Nc1n[nH]c2ncc(-c3cncnc3)cc12)C1CCCCC1`: the IC50 on CDK9/cyclin T1 turned out to be 1.8 µM; on CDK2/Cyclin A2, 0.36 µM. Moreover, the inhibition in test [1] was 96%; in test [2], 83%.

Turning to `COc1ccc(-c2cnc3[nH]nc(N)c3c2)cc1`, the inhibition in test [1] and in test [2] was below 10% in each case.

Take `CNCC(=O)Nc1n[nH]c2ncc(-c3ccc(O)cc3)cc12`: the inhibition in test [1] is 68%; in test [2], 64%.

With `O=C(Nc1n[nH]c2ncc(-c3ccc(F)cc3)cc12)C1CCCCC1`, the inhibition in test [1] is below 10%; in test [2] it was 32%.

Take `N#Cc1ccc(-c2cnc3[nH]nc(NC(=O)C4CCCCC4)c3c2)cc1`: the inhibition in test [1] and in test [2] was below 10% in each case.

As to `Nc1n[nH]c2ncc(-c3ccc(F)cc3)cc12`, the inhibition is 51% in test [1] and 38% in test [2].

Regarding `CCCCC(=O)Nc1n[nH]c2ncc(-c3ccc(O)cc3)cc12`, at CDK9/cyclin T1, the IC50 came to 3.5 µM. Also, the values for the inhibition in test [1] and in test [2] were 87% and 73%, respectively.

Turning to `Nc1n[nH]c2ncc(-c3cncnc3)cc12`, the inhibition was determined as 33% in test [1] and 50% in test [2].

`O=C(Nc1n[nH]c2ncc(-c3ccc(CO)cc3)cc12)C1CCCCC1`: the inhibition in test [1] came to 34%; in test [2], 31%.

Turning to `CC(C)c1ccc(-c2cnc3[nH]nc(N)c3c2)cc1`, the inhibition in test [1] and in test [2] was below 10% throughout.

On to `O=C(Nc1n[nH]c2ncc(-c3ccncc3)cc12)C1CCCCC1`, for which the inhibition in test [1] and in test [2] was 59% each time.

`CCC(=O)Nc1n[nH]c2ncc(-c3ccc(O)cc3)cc12`: the IC50 on CDK9/cyclin T1 stood at 2.4 µM; on CDK2/Cyclin A2, 0.82 µM. Moreover, the values for the inhibition in test [1] and in test [2] were 90% and 70%, respectively.

As for `O=C(CCN1CCOCC1)Nc1n[nH]c2ncc(-c3ccc(O)cc3)cc12`, the inhibition in test [1] stood at 44%; in test [2] it was 21%.

Turning to `O=C(Nc1n[nH]c2ncc(-c3ccc(O)cc3)cc12)C1CCCCC1`, the IC50 at CDK9/cyclin T1 worked out at 10.4 µM. For the same compound, the inhibition in test [1] worked out at 86%; in test [2], 70%.

In the case of `Nc1n[nH]c(N)c1/N=N/c1ccc(O)cc1`, at CDK2/Cyclin A2, the IC50 came to 13.1 µM.

With `O=C(O)c1ccc(-c2cnc3[nH]nc(NC(=O)C4CCCCC4)c3c2)cc1`, the inhibition in test [1] and in test [2] was below 10% in each case.

For the compound `CC(C)CC(=O)Nc1n[nH]c2ncc(-c3ccc(O)cc3)cc12`, the inhibition in test [1] was 54%; in test [2] it was 19%.

Take `CCC(CC)C(=O)Nc1n[nH]c2ncc(-c3ccc(O)cc3)cc12`: in the test listed under Homo sapiens, the Ratio IC50 is 265. The half-maximal inhibitory concentration (IC50) on CDK9/cyclin T1 stood at 529 µM; on CDK2/Cyclin A2, 2 µM. Moreover, the inhibition turned out to be 63% in test [1] and 12% in test [2].

With `CC(C)(C)CC(=O)Nc1n[nH]c2ncc(-c3ccc(O)cc3)cc12`, the values for the inhibition in test [1] and in test [2] were 77% and 59%, respectively.

Consider `O=C(Cc1ccccc1)Nc1n[nH]c2ncc(-c3ccc(O)cc3)cc12`, for which the values for the inhibition in test [1] and in test [2] were 70% and 25%, respectively.

Regarding `CN(C)CCC(=O)Nc1n[nH]c2ncc(-c3ccc(O)cc3)cc12`, the inhibition in test [1] was 59%; in test [2], 48%.

Turning to `O=C(Nc1n[nH]c2ncc(-c3ccccc3O)cc12)C1CCCCC1`, on CDK9/cyclin T1, the IC50 was 3.6 µM. Also, the inhibition in test [1] is 80%; in test [2], 78%.

Regarding `CN1CCN(CCC(=O)Nc2n[nH]c3ncc(-c4ccc(O)cc4)cc23)CC1`, the inhibition in test [1] turned out to be 51%; in test [2], 49%.

For the compound `O=C(Nc1n[nH]c2ncc(-c3ccc([N+](=O)[O-])cc3)cc12)C1CCCCC1`, the inhibition in test [1] and in test [2] was below 10% throughout.

Consider `CNCCC(=O)Nc1n[nH]c2ncc(-c3ccc(O)cc3)cc12`, for which the inhibition is 39% in test [1] and 64% in test [2].

Turning to `Nc1n[nH]c2ncc(-c3ccc(O)cc3)cc12`, the values for the inhibition in test [1] and in test [2] were 58% and 48%, respectively.

With `O=C(CCCl)Nc1n[nH]c2ncc(-c3ccc(O)cc3)cc12`, the figures for the IC50 on CDK9/cyclin T1 and on CDK2/Cyclin A2 were 2.4 µM and 0.66 µM, respectively. Besides, the inhibition came out at 98% in test [1] and 73% in test [2].

With `CN(C)CC(=O)Nc1n[nH]c2ncc(-c3ccc(O)cc3)cc12`, the figures for the inhibition in test [1] and in test [2] were 52% and 56%, respectively.

Source of the values: ChEMBL document CHEMBL4184312, “Discovery of novel CDK inhibitors via scaffold hopping from CAN508” (Bioorg Med Chem Lett, 2018).
